# From patent US7262009B2, “Method of cell detection” (Matforsk; Norwegian Food Research Institute, priority 2000, dated 2007)
# Key:
# [1] = system: purified DNA from C. jejuni; assay: DNase treatment of purified DNA, 5'-nuclease PCR; format: biochemical; conditions: after 30 minutes of DNase treatment
# Procedure: (§1) Amplification reactions (50 μl) contained a DNA sample (1 μl), 1× TaqMan™ Buffer A, 5 mM MgCl2, 200 μM dATP, dCTP, dGTP, and 400 μM dUTF, 0.02 μM. C. Jejuni specific probe, 0.3 μM C. jejuni specific primers—see Table 1 below (each), 1 U AmpErase™ Uracil N-glycosylase (UNG), and 2.5 U AmpliTaq Gold™ DNA polymerase.
# (§2) Before amplification, the PCR mixture was heated to 50° C. in 5 min to let the UNG destroy possibly contaminating PCR products, and 95° C. for 10 min to denature the template DNA. Amplification, profile: 40 cycles of 95° C. for 20 seconds and 60° C. for one minute. Reactions were performed in the ABI Prism® 7700 Sequence Detection System (PE Biosystems, Foster City, Calif., USA). Reaction conditions were programmed and data were analyzed on a power Macintosh 4400/20 (Apple Computer, Santa Clara, Calif., USA) linked directly to the ABE prism® 7700 Sequence Detection system using the SDS 1.6.3 application software (PE Biosystems, Foster City, Calif., USA) as described by the manufacturer.
# The amplification was plotted as ΔRn, which was the normalized reporter signal (reporter signal minus background), against number of cycles. […] This gave threshold cycles (CT), which is defined as the PCR cycle where an increase in fluorescence first occurred, for each amplification plot. […]
# [2] = system: Campylobacter jejuni type strain DSMZ 4688; assay: Effect of externally added DNase on DNA in heat-treated cells, 5'-nuclease PCR; format: cell-based; conditions: for reduction of the signal compared to control without DNase: 10 U DNase
# Procedure: The effect on the DNA stability at room temperature after heat-treatment of the cultures, and after addition of DNase was investigated. 1.7±0.8×10^7 cells (with DNase) and 5.0±0.6×10^7 cells (without DNase) of C. jejuni type strain were used in these experiments. […] One set of tubes were then incubated further at room temperature, and samples for PCR analysis removed at intervals of 5, 15, and 30 min, 1 h, 6 and 24 hrs, and 5 days. 10 U RQl DNase (Promega, Madison, Wis., USA) and 1× DNase buffer were added to another set of tubes before the incubation at room temperature. Aliquots were analyzed after 5, 15 and 30 min, and after 1 hr, 6 and 24 hours. For the PCR analysis, DNA was purified from 10 μl aliquots from the respective time-points, and the subsequent 5′-nuclease PCR assay performed as described below.
# Dynabeads® DNA Direct I (Dynal AS, Oslo, Norway), 200 μl, were then added to the suspension of bacteria, and the bacteria-bead suspension was incubated at 65° C. for 20 minutes, followed by incubation at room temperature for another 2 minutes. DNA bound to magnetic beads was then drawn to the wall of the microcentrifuge tube by a magnet (MPC®-E, Dynal AS, Oslo, Norway) for 2 minutes. The supernatant containing salts, detergent and cell debris was carefully removed without disrupting the Dynabeads/DNA complex. The beads were washed twice with a washing buffer (buffer 2 from the kit). Finally, the DNA was removed from the beads by resuspending in 40 μl 10 mM Tris HCl, pH 8.0 (buffer 3 from the kit), and incubation at 65° C. for 5 minutes. The beads, now released from the DNA, were collected with the magnet, and the DNA-containing supernatant was transferred to a fresh tube and used directly in the PCR.
# as §1, §2
# The amplification was plotted as ΔRn, which was the normalized reporter signal (reporter signal minus background), against number of cycles. […] This gave threshold cycles (CT), which is defined as the PCR cycle where an increase in fluorescence first occurred, for each amplification plot. […] The CT-values were plotted against log input DNA/cells and gave standard curves for quantification of unknown samples and possibilities to estimate the amplification efficiency in the reaction (Heid, C. A., J. Stevens, K. J. Livak and P. M. Williams, 1996, Real time quantitative PCR, Genome Research 6: 986-994; PE Biosystems, 1997, User bulletin 2; ABI PRISM 7700 Sequence Detection System). […]
# E. coil 0157 strain 765 = assay: Viable/dead study with EMA, TaqMan PCR; format: cell-based, E. coli; conditions: for PCR cycle difference: 100 ng/μl EMA for 5 min
# Procedure: (§3) Amplification reactions (50 μl) contained a DNA sample (1-5 μl), 1× TaqMan™ Buffer A, […], 200 μM dATP, dCTP, dGTP, and 400 μM dUTP, 0.1 μM E. coli specific probe, 0.3 μM E. coli specific primers (each), and 2.5 U AmpliTaq GoldT™ DNA polymerase. PCR samples and controls were prepared in triplicates. Reaction tubes were MicroAmp® Optical tubes and tube caps were MicroAmp® Optical caps. All consumables were supplied by PE Biosystems, Foster City, Calif., USA. Before amplification, the PCR mixture was heated to 95° C. for 10 mins to denature the template DNA. Amplification profile: 40 cycles of 95° C. for 20 seconds and 60° C. for one minute. Reactions were performed in the ABI prism® 7700 Sequence Detection System (PE Biosysrems, Foster City, Calif., USA).
# (§4) The amplification was plotted as ΔRn, which was the normalized reporter signal (reporter signal minus background), against number of cycles. One then chose a threshold signal, which intersected the amplification curves in the linear region of the semi-log plot. This gave threshold cycles (CT), which is detined as the PCR cycle where an increase in fluorescence first occurred, for each amplification plot. Different amplification could then be compared by their respective threshold cycles.
# (§5) The light activation was done on ice with a OSRAM SLG1000 lamp (OSRAM, Norway) with a 650 W halogen light bulb at a distance of 10 cm.
# The strain was killed with 70% isopropyl ethanol for. 30 min. 10 ng/μl and 100 ng/μl EMA were added both to the viable control, and to the killed bacteria. The bacteria were exposed to EMA for 30, 1 min, 5 min, 10 min and 15 min. Exposure to 100 ng/μl for 5 min give the best discrimination with approximately 1 cycle difference for the viable bacteria, and 10 cycles (½^10) for the killed bacteria. […] For treated, i.e. dead bacteria, CT was at 20 PCR cycles for bacteria not exposed to EMA but at 30 for bacteria exposed to EMA.
# DNA = assay: Time to light inactivation of EMA, real time quantitative PCR; format: biochemical; conditions: EMA exposed to light for 30 s or more prior to binding to DNA; 2, 20, 100 ng/μl
# Procedure: as §3, §4
# The light activation was done on ice with a OSRAM SLG1000 lamp (OSRAM, Norway) with a 650 W halogen light bulb at a distance of 10 cm. […]
# 16S rDNA gene (pure DNA) = assay: PCR inhibitory effect of photoactivated and unactivated EMA on pure DNA (16S rDNA PCR, agarose gel); format: biochemical
# Procedure: The PCR inhibitory effects of both photoactivated, and unactivated EMA were investigated for pure DNA. PCR amplifications were carried out on dilution series of 1000, 100 and 10 μg/ml EMA. The 16S rDNA gene was amplified through the application of the forward primer 5′[…]3′ and the reverse primer 5′[…]3′. These primer sites are universally conserved for eubacterial 16S rDNA.
# The PCR amplifications were done using the GeneAmp 9700 PCR amplification system (PE biosystems, Norwalk, Conn., USA). The 50 μl PCR reactions contained 10 pmol of each primer, 200 μM dNTP, 10 mM Tris-HCl (pH 8.8), 1.5 mM MgCl2, 50 mM KCl, 0.1% Triton® x-100, 1 U DynaZyme™ Thermostable DNA Polymerase (Finnzymes OY, Espoo, Finland) and 2 ng template. The cycling parameters were: 94° C. for 30 s, 55° C. for 30 s and 72° C. for 1 minute.
# The cycling step was repeated 25 times. The samples were heated to 94° C. for 5 minutes prior to the amplification, and an extension step at 72° C. for 7 minutes was included after completion of the amplification reactions.
# For each dilution series PCR was employed both on samples where EMA had been covalently photoactivated to DNA through illumination with a Luxor 18W type FL-185 lamp (Luxor ASA, Oslo, Norway) at 5 cm for 15 minutes, and on samples where EMA had been added to the DNA in the dark. […] For 100 and 10 μg/ml, the photoactivated EMA inhibited PCR, while PCR for the unactivated EMA was not inhibited (FIG. 1). 10 μg/ml amplification products were separated on a 1% agarose gel for 45 minutes at 100 volts. The conclusion from these experiments is that EMA covalently bound to DNA is sufficient to inhibit PCR amplification, and that EMA by itself is only inhibitory to PCR at high concentrations.
# purified DNA = assay: Time series for covalent binding of EMA to DNA, real time quantitative PCR; format: biochemical
# Procedure: as §3, §4, §5
# EMA in concentrations 2 ng/μl, 20 ng/μl and 100 ng/μl were added to purified DNA, and exposed to light for 5 s, 15 s, 45 s, 1 min and 3 min. The amount of DNA that could serve as a template was then tested by real time quantitative PCR.
# E. coli = assay: EMA as living/dead stain: PCR signal from living and killed E. coli; format: cell-based; conditions: for difference in PCR signal intensities between the treated sample and the control: light 10 minutes
# Procedure: Panel B: The signal intensities were determined as pixel values in an 8 bit grayscale by using the program Gel-Pro ANALYZER software (Medica Cybernetics, Silver Spring. Md.). The relative signal intensities for the EMA treated samples are given as a percentage of the untreated samples.
# E. coli was killed by ethanol, heat, and formaldehyde to test the effect of EMA as a living/dead stain. In these experiments aliquots of approximately 10^8 cells of E. coli were pelleted in a microcentrifuge at 8000 rpm for 5 minutes, the supernant removed, and the cells resuspended in 50 μl of the respective liquids; water 96% ethanol, and 2% formaldehyde. The ethanol and formaldehyde treated samples were incubated at room temperature, while the water samples were incubated both at room temperature and at 95° C. All samples were incubated at the respective temperatures for 5 minutes.
# The bacteria were subsequently pelleted by centrifugation, the supernatant removed, and the cells resuspended in 50 μl water. […]
# All the samples were exposed to light for 10 minutes. Subsequently, the samples were resuspended in 500 μl […] (GTC) and 1% sarkosyl containing 1U Dynabeads DNA DIRECT beads (Dynal AS, Oslo, Norway). Incubation was continued at room temperature for an additional 5 minutes. 1 ml 96% ethanol was added, and after 5 minutes the samples were washed twice with 1 ml 70% ethanol. The bead and DNA complex was then resuspended in 50 μl water, and finally heated to 65° C. for 10 minutes to remove residual ethanol. 2% of the purified DNA was used in each amplification reaction as described above.
compound,measurement,setting,value
DNase,input material (DNA) left,[1],about 0.01%
same,reduction of the signal compared to control without DNase,[2]; cells heated at 72° C. for 5 min,1 log
same,reduction of the signal compared to control without DNase,[2]; cells heated at 100° C. for 5 min,1 log
same,reduction of the signal compared to control without DNase,[2]; cells heated at 121° C. for 15 min,1 log
same,difference between the DNase treated samples and the control,[2]; cells incubated at 20° C.,little difference
same,difference between the DNase treated samples and the control,[2]; cells incubated at 55° C.,little difference
"CC[n+]1c(-c2ccccc2)c2cc(N=[N+]=[N-])ccc2c2ccc(N)cc21.[Br-] [EMA, ethidium bromide monoazide]",PCR cycle difference,E. coil 0157 strain 765; killed bacteria (70% isopropyl ethanol 30 min),~10 cycles
same,CT,"E. coil 0157 strain 765; treated, i.e. dead bacteria exposed to EMA",30 PCR cycles
same,CT,"E. coil 0157 strain 765; untreated, i.e. viable bacteria exposed to EMA",21 cycles
same,PCR cycle difference,E. coil 0157 strain 765; viable bacteria,approximately 1 cycle
same,difference between the control and the test sample,DNA,no significant difference
same,PCR inhibition,"16S rDNA gene (pure DNA); non activated EMA (added in the dark), 1000 μg/ml",inhibited the PCR reaction
same,PCR inhibition,"16S rDNA gene (pure DNA); photoactivated EMA, 10 μg/ml",inhibited PCR
same,PCR inhibition,"16S rDNA gene (pure DNA); photoactivated EMA, 100 μg/ml",inhibited PCR
same,PCR inhibition,"16S rDNA gene (pure DNA); photoactivated EMA, 1000 μg/ml",inhibited the PCR reaction
same,PCR inhibition,"16S rDNA gene (pure DNA); unactivated EMA, 10 μg/ml",not inhibited
same,PCR inhibition,"16S rDNA gene (pure DNA); unactivated EMA, 100 μg/ml",not inhibited
same,difference in the PCR cycles (ΔCT) until a detectable signal,"purified DNA; EMA 2, 20 and 100 ng/μl (all concentrations tested), after light exposure",approximately 12
same,time at which the binding reaction was complete,"purified DNA; light exposure, EMA 2-100 ng/μl",about 30 s
same,fraction of DNA that could serve as a PCR template after covalent binding of EMA,"purified DNA; ½^12, from ΔCT","0,000244"
same,amplification efficiency for the living bacteria,E. coli; EMA 100 μg/ml,reduced the amplification efficiency
same,discrimination between the viable and dead bacteria,E. coli; EMA increased to 100 μg/ml,did not result in a better discrimination
same,difference in PCR signal intensities between the treated sample and the control,"E. coli; bacteria killed by heat (95° C.), EMA 10 μg/ml",about 100%
same,difference in PCR signal intensities between the treated sample and the control,"E. coli; bacteria killed with ethanol, EMA 10 μg/ml",about 100%
same,PCR inhibition,E. coli; ethanol killed bacteria (double-stranded DNA),100%
same,difference in PCR signal intensities between the treated sample and the control,"E. coli; formaldehyde treated sample, EMA 10 μg/ml",85%
same,PCR inhibition,E. coli; heat killed bacteria (single-stranded DNA),100%
same,difference in PCR signal intensities between the controls and the EMA sample,"E. coli; living bacteria, EMA 10 μg/ml",no differences
